Measurements taken from ChEMBL document CHEMBL1146757, “Silanediol peptidomimetics. Evaluation of four diastereomeric ACE inhibitors” (Bioorg Med Chem Lett, 2004).

Molecular target: T1, Angiotensin-converting enzyme (Oryctolagus cuniculus, UniProt P12822)
T1 sequence (P12822 whole entry): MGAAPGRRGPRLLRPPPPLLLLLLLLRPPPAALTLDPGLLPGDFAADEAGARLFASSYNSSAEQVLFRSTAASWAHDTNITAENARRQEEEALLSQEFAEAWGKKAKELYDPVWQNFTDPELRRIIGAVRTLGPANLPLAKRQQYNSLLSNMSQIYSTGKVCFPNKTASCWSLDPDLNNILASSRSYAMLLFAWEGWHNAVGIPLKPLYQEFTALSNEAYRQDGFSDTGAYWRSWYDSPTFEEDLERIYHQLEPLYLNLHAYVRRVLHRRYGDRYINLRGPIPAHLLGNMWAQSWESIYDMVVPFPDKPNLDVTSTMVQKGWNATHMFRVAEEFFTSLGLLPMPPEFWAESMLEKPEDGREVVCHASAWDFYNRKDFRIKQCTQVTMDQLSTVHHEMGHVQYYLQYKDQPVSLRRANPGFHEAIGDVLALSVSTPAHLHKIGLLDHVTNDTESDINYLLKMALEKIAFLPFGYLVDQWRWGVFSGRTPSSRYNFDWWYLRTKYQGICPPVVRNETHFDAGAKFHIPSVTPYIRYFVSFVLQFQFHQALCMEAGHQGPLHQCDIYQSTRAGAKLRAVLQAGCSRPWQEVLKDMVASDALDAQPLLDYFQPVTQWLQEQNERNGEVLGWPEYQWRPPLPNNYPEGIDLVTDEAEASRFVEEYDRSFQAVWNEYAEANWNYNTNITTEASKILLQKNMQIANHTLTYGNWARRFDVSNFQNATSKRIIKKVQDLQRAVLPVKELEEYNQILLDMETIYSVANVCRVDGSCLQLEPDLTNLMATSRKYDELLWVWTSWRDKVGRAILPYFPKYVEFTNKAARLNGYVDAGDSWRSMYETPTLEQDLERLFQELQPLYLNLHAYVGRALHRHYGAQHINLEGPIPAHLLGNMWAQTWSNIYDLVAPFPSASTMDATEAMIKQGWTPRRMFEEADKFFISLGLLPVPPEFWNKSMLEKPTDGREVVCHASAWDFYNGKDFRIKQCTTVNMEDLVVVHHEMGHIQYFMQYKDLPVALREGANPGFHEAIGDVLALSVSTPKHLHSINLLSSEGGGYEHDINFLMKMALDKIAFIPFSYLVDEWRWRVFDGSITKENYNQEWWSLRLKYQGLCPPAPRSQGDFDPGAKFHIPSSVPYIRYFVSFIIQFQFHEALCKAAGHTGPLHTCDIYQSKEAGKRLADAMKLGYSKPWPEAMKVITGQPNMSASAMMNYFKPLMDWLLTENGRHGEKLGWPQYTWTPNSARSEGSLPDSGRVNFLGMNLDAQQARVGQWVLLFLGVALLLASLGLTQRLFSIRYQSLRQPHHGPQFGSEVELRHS
Assay: Inhibitory activity of compound against angiotensin I converting enzyme was determined

Q: For `C[C@@H](C[Si](O)(O)[C@@H](Cc1ccccc1)NC(=O)c1ccccc1)C(=O)N1CCC[C@H]1C(=O)O`, which IC50 is on record?
A: Its IC50 is 72 nM.

Q: With `C[C@H](C[Si](O)(O)[C@@H](Cc1ccccc1)NC(=O)c1ccccc1)C(=O)N1CCC[C@H]1C(=O)O` as the compound, how does the IC50 read?
A: The IC50 was 19 nM.

Q: For `CC(C)CC(NC(=O)c1ccccc1)[Si](O)(O)CC(C)C(=O)N1CCC[C@H]1C(=O)O` (stereo not given in full), which IC50 is on record?
A: Its IC50 is 14 nM.

Q: `C[C@H](C[Si](O)(O)[C@H](Cc1ccccc1)NC(=O)c1ccccc1)C(=O)N1CCC[C@H]1C(=O)O` was tested. Which IC50 did it give?
A: The IC50 was 3.8 nM.

Q: With `C[C@@H](C[Si](O)(O)[C@H](Cc1ccccc1)NC(=O)c1ccccc1)C(=O)N1CCC[C@H]1C(=O)O` as the compound, how does the IC50 read?
A: Its IC50 is 207 nM.
